From patent US20220409548A1, “AMORPHOUS SOLID DISPERSION OF PYRAZOLE-AMIDE COMPOUND” (JAPAN TOBACCO INC., priority 2019, published 2022)

Assays:
[1] = Precipitation test in acidic media (pH 1.2); format: physicochemical; conditions: ethanol solution 100 mg/mL into JP 1st fluid pH 1.2, 450 mL; addition of copolyvidone, methylcellulose or hypromellose (0.01 g) vs HPMCAS, polyvinyl alcohol or no polymer; FIG. 3
Description: The dissolution test was performed using a dissolution tester (trade name: NTR-VS6P, manufactured by Toyama Sangyo Co., Ltd.) that conforms to the Japanese Pharmacopoeia Dissolution Test Method 2 (Paddle Method), at paddle rotating speed 75 rpm, test media amount 450 mL. An amount equivalent to 100 mg of the compound of the formula [I] was added to the test media, and the dissolved amount of the compound of the formula [I] was measured at each sampling point with a spectrophotometer (UV-1600, manufactured by Shimadzu Corporation).
The precipitation behavior of the compound of the formula [I], dissolved in ethanol (concentration: 100 mg/mL), in the following 6 types of test medium was evaluated by the same test method as in Experimental Example 1. […]

[2] = test system: pyruvate dehydrogenase kinase (PDHK); conditions: described in patent document 1 (WO 2014/142290); cited from earlier work

For CC(C)(O)CCOc1cc(-c2cnn(C(C)(C)C(N)=O)c2)c2c(c1)[C@@](O)(C(F)(F)F)c1ccccc1-2 [compound of the formula [I], 2-{4-[(9R)-9-hydroxy-2-(3-hydroxy-3-methylbutyloxy)-9-(trifluoromethyl)-9H-fluoren-4-yl]-1H-pyrazol-1-yl}-2-methylpropanamide], the “precipitation behavior in pH 1.2 test media” value [1] is given as “significantly suppressed the precipitation” and the “pyruvate dehydrogenase kinase (PDHK) inhibitory activity” value [2] is given as “have a pyruvate dehydrogenase kinase (PDHK) inhibitory activity”.
